Reference: patent US20140288052A1, “SUBSTITUTED BICYCLIC AZA-HETEROCYCLES AND ANALOGUES AS SIRTUIN MODULATORS” (GlaxoSmithKline, LLC, priority 2011, published 2014)

Experiments:
[1] = target: T1, SIRT1 (Homo sapiens, UniProt Q96EB6); test: TAMRA based mass spectrometry assay of SIRT1 deacetylase activation; assay type: biochemical; details: TAMRA peptide substrate; for TAMRA EC1.5 (μM): concentration that results in 150% activation of SIRT1; for TAMRA % Fold Act: percent maximum fold activation relative to control (100%)
T1 sequence (Q96EB6 1-747): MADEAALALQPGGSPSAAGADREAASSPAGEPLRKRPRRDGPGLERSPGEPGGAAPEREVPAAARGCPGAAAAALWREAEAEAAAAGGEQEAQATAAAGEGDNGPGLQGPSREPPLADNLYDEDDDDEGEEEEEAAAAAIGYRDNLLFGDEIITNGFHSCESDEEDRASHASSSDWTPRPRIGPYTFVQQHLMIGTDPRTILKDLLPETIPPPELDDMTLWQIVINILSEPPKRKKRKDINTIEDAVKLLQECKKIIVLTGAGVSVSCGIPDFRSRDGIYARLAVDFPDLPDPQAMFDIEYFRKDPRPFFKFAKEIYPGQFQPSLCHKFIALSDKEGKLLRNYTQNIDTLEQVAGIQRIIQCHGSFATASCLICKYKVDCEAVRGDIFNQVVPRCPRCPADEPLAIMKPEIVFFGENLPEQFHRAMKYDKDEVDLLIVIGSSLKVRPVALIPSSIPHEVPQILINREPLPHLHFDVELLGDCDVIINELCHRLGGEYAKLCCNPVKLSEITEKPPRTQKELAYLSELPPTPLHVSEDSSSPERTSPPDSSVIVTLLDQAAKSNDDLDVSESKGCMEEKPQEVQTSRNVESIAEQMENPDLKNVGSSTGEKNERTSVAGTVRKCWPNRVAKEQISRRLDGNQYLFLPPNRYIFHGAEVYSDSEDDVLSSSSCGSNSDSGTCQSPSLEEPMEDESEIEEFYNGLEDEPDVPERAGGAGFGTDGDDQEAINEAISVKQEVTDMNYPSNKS
Description: (§1) Mass spectrometry based assays were used to identify modulators of SIRT1 activity. The TAMRA based assay utilized a peptide having 20 amino acid residues as follows: Ac-EE-K(biotin)-GQSTSSHSK(Ac)NleSTEG-K(5TMR)-EE-NH2 (SEQ ID NO: 1), wherein K(Ac) is an acetylated lysine residue and Nle is a norleucine. The peptide was labeled with the fluorophore 5TMR (excitation 540 nm/emission 580 nm) at the C-terminus. The sequence of the peptide substrate was based on p53 with several modifications. In addition, the methionine residue naturally present in the sequence was replaced with the norleucine because the methionine may be susceptible to oxidation during synthesis and purification. The Trp based assay utilized a peptide having an amino acid residues as follows: Ac-R-H-K-K(Ac)-W-NH2 (SEQ ID NO: 2).
The TAMRA based mass spectrometry assay was conducted as follows: 0.5 μM peptide substrate and 120 μM βNAD^+ was incubated with 10 nM SIRT1 for 25 minutes at 25° C. in a reaction buffer (50 mM Tris-acetate pH 8, 137 mM NaCl, 2.7 mM KCl, 1 mM MgCl2, 5 mM DTT, 0.05% BSA). The SIRT1 protein was obtained by cloning the SirT1 gene into a T7-promoter containing vector, which was then transformed and expressed in BL21(DE3) bacterial cells. Test compound was added at varying concentrations to this reaction mixture and the resulting reactions were monitored. After the 25 minute incubation with SIRT1, 10 μL of 10% formic acid was added to stop the reaction. The resulting reactions were sealed and frozen for later mass spec analysis. Determination of the amount of deacetylated substrate peptide formed (or, alternatively, the amount of O-acetyl-ADP-ribose (OAADPR) generated) by the sirtuin-mediated NAD-dependent deacetylation reaction allowed for the precise measurement of relative SIRT1 activity in the presence of varying concentrations of the test compound versus control reactions lacking the test compound.
(§2) A control for inhibition of sirtuin activity was conducted by adding 1 μL of 500 mM nicotinamide as a negative control at the start of the reaction (e.g., permits determination of maximum sirtuin inhibition). A control for activation of sirtuin activity was conducted using 10 nM of sirtuin protein, with 1 μL of DMSO in place of compound, to determine the amount of deacetylation of the substrate at a given time point within the linear range of the assay. This time point was the same as that used for test compounds and, within the linear range, the endpoint represents a change in velocity. For the above assay, SIRT1 protein was expressed and purified as follows. The SirT1 gene was cloned into a T7-promoter containing vector and transformed into BL21(DE3). The protein was expressed by induction with 1 mM IPTG as an N-terminal His-tag fusion protein at 18° C. overnight and harvested at 30,000×g. Cells were lysed with lysozyme in lysis buffer (50 mM Tris-HCl, 2 mM Tris[2-carboxyethyl] phosphine (TCEP), 10 μM ZnCl2, 200 mM NaCl) and further treated with sonication for 10 min for complete lysis. The protein was purified over a Ni-NTA column (Amersham) and fractions containing pure protein were pooled, concentrated and run over a sizing column (Sephadex S200 26/60 global). The peak containing soluble protein was collected and run on an Ion-exchange column (MonoQ). Gradient elution (200 mM-500 mM NaCl) yielded pure protein. This protein was concentrated and dialyzed against dialysis buffer (20 mM Tris-HCl, 2 mM TCEP) overnight. The protein was aliquoted and frozen at −80° C. until further use.
Sirtuin-modulating compounds of Formula (I) that activated SIRT1 were identified using the assay described above and are shown below in Table 1. The EC1.5 values represent the concentration of test compounds that result in 150% activation of SIRT1. The EC1.5 values for the activating compounds of Formula (I) are represented by A (EC1.5<1 μM), B (EC1.5 1−25 μM), C (EC1.5>25 μM). […]

[2] = target: T1, SIRT1; test: Trp mass spectrometry assay of SIRT1 deacetylase activation; assay type: biochemical; details: Trp peptide substrate; for TRP EC1.5 (μM): concentration that results in 150% activation of SIRT1; for TRP % Fold Act: percent maximum fold activation relative to control (100%)
Description: as §1
The Trp mass spectrometry assay was conducted as follows. 0.5 μM peptide substrate and 120 μM βNAD^+ were incubated with 10 nM SIRT1 for 25 minutes at 25° C. in a reaction buffer (50 mM HEPES pH 7.5, […], 1 mM DTT, 0.05% BSA). The SIRT1 protein was obtained by cloning the SirT1 gene into a T7-promoter containing vector, which was then expressed in BL21(DE3) bacterial cells and purified as described in further detail below. Test compound was added at varying concentrations to this reaction mixture and the resulting reactions were monitored. After the 25 minute incubation with SIRT1, 10 μL of 10% formic acid was added to stop the reaction. The resulting reactions were sealed and frozen for later mass spec analysis. The relative SIRT1 activity was then determined by measuring the amount of O-acetyl-ADP-ribose (OAADPR) formed (or, alternatively, the amount of deacetylated Trp peptide generated) by the NAD-dependent sirtuin deacetylation reaction in the presence of varying concentrations of the test compound versus control reactions lacking the test compound. The degree to which the test agent activated deacetylation by SIRT1 was expressed as EC1.5 (i.e., the concentration of compound required to increase SIRT1 activity by 50% over the control lacking test compound), and Percent Maximum Activation (i.e., the maximum activity relative to control (100%) obtained for the test compound).
as §2
Sirtuin-modulating compounds of Formula (I) that activated SIRT1 were identified using the assay described above and are shown below in Table 1. […]

Structure (SMILES)	TAMRA EC1.5 (μM) [1]	TAMRA % Fold Act [1]	TRP EC1.5 (μM) [2]	TRP % Fold Act [2]
O=C(Nc1nccs1)c1ccnn2cc(-c3ccccc3F)nc12 [Compound 1]	C (EC1.5>25 μM)	B (Fold Activation<350%)	C (EC1.5>25 μM)	B (Fold Activation<350%)
O=C(Nc1nccs1)c1ccnn2cc(-c3ccccc3Cl)nc12 [Compound 3]	C (EC1.5>25 μM)	B (Fold Activation<350%)	–	–
Cc1cnc(NC(=O)c2ccnn3cc(-c4ccccc4F)nc23)s1 [Compound 4]	C (EC1.5>25 μM)	B (Fold Activation<350%)	C (EC1.5>25 μM)	B (Fold Activation<350%)
O=C(Nc1ccnc(N2CCOCC2)c1)c1ccnn2cc(-c3ccccc3F)nc12 [Compound 7]	C (EC1.5>25 μM)	B (Fold Activation<350%)	–	–
O=C(Nc1ccnc(N2CCOCC2)c1)c1ccnn2cc(-c3ccccc3Cl)nc12 [Compound 9]	B (EC1.5 1−25 μM)	B (Fold Activation<350%)	–	–
O=C(Nc1cccc(N2CCOCC2)n1)c1ccnn2cc(-c3cccc(F)c3)nc12 [Compound 11]	C (EC1.5>25 μM)	B (Fold Activation<350%)	–	–
O=C(Nc1ccnc(N2CCOCC2)c1)c1ccnn2cc(-c3ccccc3C(F)(F)F)nc12 [Compound 15]	A (EC1.5<1 μM)	A (Fold activation≧350%)	–	–
O=C(Nc1ccnc(N2CCOCC2)c1)c1ccnn2cc(-c3cccc(C(F)(F)F)c3)nc12 [Compound 19]	C (EC1.5>25 μM)	B (Fold Activation<350%)	–	–
O=C(Nc1cccc(N2CCOCC2)n1)c1ccnn2cc(-c3cccc(C(F)(F)F)c3)nc12 [Compound 20]	A (EC1.5<1 μM)	B (Fold Activation<350%)	–	–
O=C(Nc1cccc(N2CCOCC2)n1)c1ccnn2cc(-c3cccc(Cl)c3)nc12 [Compound 24]	C (EC1.5>25 μM)	B (Fold Activation<350%)	–	–
Cc1cnc(NC(=O)c2cc(N3CCOCC3)nn3cc(-c4cccc(Cl)c4)nc23)s1 [Compound 31]	C (EC1.5>25 μM)	B (Fold Activation<350%)	–	–
O=C(Nc1nccs1)c1cc(N2CCOCC2)nn2cc(-c3ccccc3Cl)nc12 [Compound 34]	–	–	B (EC1.5 1−25 μM)	B (Fold Activation<350%)
Cc1cnc(NC(=O)c2cc(N3CCOCC3)nn3cc(-c4ccccc4Cl)nc23)s1 [Compound 35]	–	–	C (EC1.5>25 μM)	B (Fold Activation<350%)
Cc1cnc(NC(=O)c2cc(N3CCOCC3)nn3cc(-c4ccccc4F)nc23)s1 [Compound 38]	–	–	C (EC1.5>25 μM)	B (Fold Activation<350%)
O=C(Nc1cccnc1)c1cc(N2CCOCC2)nn2cc(-c3cccc(C(F)(F)F)c3)nc12 [Compound 50]	C (EC1.5>25 μM)	B (Fold Activation<350%)	–	–
O=C(Nc1ccncc1)c1cc(N2CCOCC2)nn2cc(-c3cccc(C(F)(F)F)c3)nc12 [Compound 51]	C (EC1.5>25 μM)	B (Fold Activation<350%)	–	–
O=C(Nc1cccnc1)c1cc(N2CCOCC2)nn2cc(-c3ccccc3Cl)nc12 [Compound 52]	C (EC1.5>25 μM)	B (Fold Activation<350%)	–	–
O=C(Nc1ccncc1)c1cc(N2CCOCC2)nn2cc(-c3ccccc3Cl)nc12 [Compound 53]	C (EC1.5>25 μM)	B (Fold Activation<350%)	–	–
Cc1nc(C(=O)Nc2ccnc3cc(-c4cccc(C(F)(F)F)c4)nn23)cs1 [Compound 67]	–	–	C (EC1.5>25 μM)	B (Fold Activation<350%)
Cc1nc(C(=O)Nc2ccnc3cc(-c4cccc(C(F)(F)F)c4)nn23)c(C)s1 [Compound 68]	–	–	C (EC1.5>25 μM)	B (Fold Activation<350%)
Cc1cnc(C(=O)Nc2ccnc3cc(-c4cccc(C(F)(F)F)c4)nn23)s1 [Compound 69]	–	–	C (EC1.5>25 μM)	B (Fold Activation<350%)
O=C(Nc1ccnc2cc(-c3cccc(C(F)(F)F)c3)nn12)c1cnccn1 [Compound 72]	–	–	C (EC1.5>25 μM)	B (Fold Activation<350%)
O=C(Nc1ccccn1)c1ccnc2cc(-c3cccc(C(F)(F)F)c3)nn12 [Compound 84]	–	–	C (EC1.5>25 μM)	B (Fold Activation<350%)
